“Also recorded” adds a separate entry of the source. Where two headings read alike, the source gives them in different places.
Tests used:
C57BL/6J mice = test: Head-twitch response (HTR) assay; type: in vivo, mouse; conditions: i.p., multiple doses
Procedure: The HTR assay was performed as described previously using both male and female C57BL/6J mice (2 male and 2 female=4 total per treatment). The mice were obtained from The Jackson Laboratory (Sacramento, C.A.) and were approximately 8-weeks old at the time of the experiments. Compounds were administered (5 mL/kg, i.p.) using 0.9% saline as the vehicle. After injection, animals were placed into an empty cage (8″×13″×5″) and HTRs were videotaped, scored later by two blinded observers, and the results were averaged (interpersonnel kappas, Pearson correlation coefficient>0.91). Locomotion was assessed using AnyMaze automated tracking software.

psychLight2 [1] = type: cell-based, human
Procedure: Compounds unlikely to bind to the sensor should produce minimal to no response in either agonist or antagonist mode. Therefore, a ligand score was calculated as: […]

psychLight2 [2] = test: PSYLI2 high-content imaging, agonist mode; type: cell-based, human
Procedure: (§1) High-Content Imaging Experiments. Glass bottom 96-well plates (P96-1.5H-N, Cellvis) were coated with 50 μg/mL of poly-D-lysine (Sigma, P6407-5MG) and 10 μg/mL laminin (Sigma, L2020) overnight in an incubator (37° C., 5% CO2). […] Immediately prior to an experiment, stock solutions of drugs in DMSO (10 mM) were first diluted 1:100 in imaging media distributed across an empty 96-well plate (treatment plate) in triplicates following a randomized plate map. […] Cells grown in a separate 96-well plate (assay plate) were gently washed (3×) with imaging media, and the wells were filled with an appropriate volume of imaging media for the respective experiment (vide infra).
(§2) For agonist mode, […] of imaging media was added to each well of the assay plate. Wells were then imaged on a Lecia DMi8 using Leica Application Suite X (V3.6.0.20104) at 40×(N.A.=0.6) with 5 regions of interest (ROI) taken per well using the default 5 ROI pattern for each well with no bias to location and no overlap of the ROIs (exposure=350 ms, LED power=80%). Next, 20 μL from the treatment plate was transferred to the assay plate for a total 1:1000 dilution of drug (10 μM drug, 0.1% DMSO). […] All final concentrations of drugs were 10 μM (0.1% DMSO) in agonist mode unless stated otherwise. After 5 min of incubation, the same sites were re-imaged using the same settings.
Once imaging was complete, the images were exported, put into a stack, and analyzed using ImageJ Fiji (ver. 1.51v) by using the rectangle function to draw an ROI around the cell membrane (one cell per image) on both the pre- and posttreatment images. ROI sizes within each plate were kept the same and saved to the ROI manager in ImageJ (ctrl+T). Images were then measured using the “multi measure” function in the ROI manager. Measurements were saved and exported. Analysis of the data was done by taking the average of each individual well's ROIs before and after drugs were added. Then the ΔF/F values for each well were calculated using the following equation: […]
as §1, with “Glass” for “High-Content Imaging Experiments. Glass”, “50 µg/mL” for “50 μg/mL”, “10 pg/mL of” for “10 μg/mL”, “were” for “were first”, “in triplicate” for “in triplicates”, “washed 3×” for “washed (3×)”
as §2, with “agonist mode experiments,” for “agonist mode,”, “media were” for “media was”, “20 pL” for “20 μL”, “plate containing” for “plate for”, “a” for “a total”, “(10 pM as the final concentration in” for “(10 μM drug,”
Once imaging was complete, the images were exported, and analyzed using self-written MATLAB script. Script will be deposit on to Github. In short, segmentation was performed on individual images and a mask highlighting the membrane of the HEK293T cells was generated. Pixel intensities were obtained from the mask-highlighted area and exported into Excel. The ΔF/F values for each well were calculated using the following equation: […]

psychLight1 [3] = target: psychLight1 (Homo sapiens, UniProt P28223, E264Q/I181A); test: cell-based; type: cell-based
Procedure: (§3) HEK293T cells were grown in DMEM, supplemented with fetal bovine serum (FBS) and penicillin-streptomycin. Cells were trans-fected with Effectene according to the manufacturer's instructions. Prior to imaging, cells were washed with Hank's Balanced Salt Solution (HBSS) supplemented with 2 mM MgCl2 and 2 mM CaCl2). All images were collected in HBSS containing Mg^2+ and Ca^2+.
(§4) HEK293T cells were plated and transfected concurrently 24 h prior to each experiment using the QIAGEN Effectene Transfection
(§5) Dose-response experiments were performed using an Automate Perfusion System. Cells (HEK293T) were grown on 12 mm cover-slips and transfected with psychLight1. The coverslips were then placed into a coverslip holder and washed with 5 mL of HBSS containing 2 mM MgCl2 and 2 mM CaCl2). Cells were perfused first with 5 mL of 0.1% DMSO, then drugs in ascending concentrations from 1 pM to […] were added, with the concentration of DMSO being held constant at 0.10%. […] For the competition studies described in FIG. 19, HEK293T cells were prepared as described above; however, the cells were first exposed to 5 mL of 0.2% DMSO. […] Analysis was performed by taking 3 ROIs on the cell membrane using ImageJ and calculating the mean intensity for each ROI across the time-points. Finally, the DF/F was calculated using the average of the baseline (0.1 or 0.2% DMSO) and the average intensity between each dosage over the average of the baseline.

psychLight2 [4] = conditions: mouse, in vivo
Source text: Three animals were used for experiments measuring sensor activity in the prelimbic cortex.

psychLight1 [5] = test: cell-based; type: cell-based, human; conditions: for EC50: read-out: EC50 (half maximal effective concentration)
Procedure: as §3, §4, §5

psychLight [6] = type: cell-based, human
[7] = tested on: psychLight2 response to electrically evoked 5-HT release; design: species or system mouse
psychLight [8] = test: Schild regression analysis in PSYLI2 cells; type: cell-based, human
Procedure: During imaging, […] of imaging media were added to each well of the assay plate. Wells were then imaged on a Lecia DMi8 using Leica Application Suite X (V3.6.0.20104) at 40×(N.A.=0.6) with 5 regions of interest (ROI) taken per well using the default 5 ROI pattern for each well with no bias to location and no overlap of the ROIs (exposure=350 ms, LED power=80%). Next, […] from the treatment plate was transferred to the assay plate for a final 1:1000 dilution of drug. All final drug treatments contained 0.1% DMSO. After 5 min of incubation, the same sites were re-imaged using the same settings. The data analysis method was the same as in agonist and antagonist mode.

dLight = type: cell-based
[9] = HEK293T cells expressing psychLight
[10] = 10 μM compound, hit limit 1 SD from vehicle

psychLight1 (Homo sapiens, UniProt P28223, E264Q/I181A), sequence (P28223 whole entry I181A/E264Q, looked up): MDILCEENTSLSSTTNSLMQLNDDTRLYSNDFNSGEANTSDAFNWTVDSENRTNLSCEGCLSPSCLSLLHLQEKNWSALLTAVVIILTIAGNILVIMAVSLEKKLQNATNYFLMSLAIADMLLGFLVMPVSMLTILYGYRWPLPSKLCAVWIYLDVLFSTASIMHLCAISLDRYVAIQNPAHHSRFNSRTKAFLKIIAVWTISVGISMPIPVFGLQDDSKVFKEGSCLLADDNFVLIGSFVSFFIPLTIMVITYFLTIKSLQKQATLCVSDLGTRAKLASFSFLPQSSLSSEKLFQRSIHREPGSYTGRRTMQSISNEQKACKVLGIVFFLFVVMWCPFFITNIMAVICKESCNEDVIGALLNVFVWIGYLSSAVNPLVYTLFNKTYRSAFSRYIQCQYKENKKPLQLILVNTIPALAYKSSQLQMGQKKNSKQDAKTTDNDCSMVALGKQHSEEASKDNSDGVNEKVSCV

With CN(C)CCc1c[nH]c2ccc(Br)cc12 [5-Br-DMT, 5-bromo-N,N-dimethyltryptamine] the “head-twitch response (HTR)” value (C57BL/6J mice) was “did not induce head-twitches at any dose; also recorded: failed to induce HTRs at any dose” and the ligand score (psychLight2 [1]) was “negative ligand score”.
CN(C)CCc1c[nH]c2ccc(Cl)cc12 [5-Cl-DMT, 5-chloro-N,N-dimethyltryptamine] was tested, and the “head-twitch response (HTR)” value (C57BL/6J mice) was “produced robust HTRs” and the ligand score (psychLight2 [1]) was “positive ligand scores”.
In the case of CN(C)CCc1c[nH]c2ccc(F)cc12 [5-F-DMT, 5-flouo-N,N-dimethyltryptamine], the “head-twitch response (HTR)” value (C57BL/6J mice) is reported as “produced robust HTRs” and the ligand score (psychLight2 [1]) is reported as “positive ligand scores”.
In the case of NCCc1c[nH]c2ccc(O)cc12 [5-HT, serotonin], the “PSYLI2 response (positive and negative controls)” value (psychLight2 [2]) is reported as 44.8±0.8%, the “fluorescence intensity change, high content imager with psychLight2” value (psychLight2 [2]) is reported as 38.2±2.4% and the “ΔF/F PSYLI2 fluorescence, panel of tryptamines” value (shortened to “ΔF/F PSYLI2 fluorescence, panel”) (psychLight2 [2]) is reported as 46.3%±1.4%. The “fluorescence intensity change, confocal with psychLight1” value (shortened to “fluorescence intensity change, confocal”) (psychLight1 [3]) was 77.3±2.4%.
With COc1ccc2[nH]cc(CCN(C)C)c2c1 [5-MeO, 5-methoxy-N,N-dimethyltrytamine] the “fluorescence intensity change, high content imager with psychLight2” value (psychLight2 [2]) was 24.1±4.6%, the “head-twitch response during fiber photometry” value (psychLight2 [4]) was “concomitant increase in HTR” and the “psychLight2 fluorescence in prelimbic cortex after injection” value (psychLight2 [4]) was “sharp increase in fluorescence”. For the same compound, the “fluorescence intensity change, confocal” value (psychLight1 [5]) was 48.4±3.1%, the EC50 (psychLight1 [5]) was 157 nM and the Emax (psychLight1 [3]) was 48.4%.
CN(C)CCc1c[nH]c2ccc(O)cc12 [BUFO, N,N-dimethylserotonin] was tested, and the “ΔF/F PSYLI2 fluorescence, panel” value (psychLight2 [2]) was 22.3%±2.8%.
CN(C)CCc1c[nH]c2ccccc12 [DMT, N,N-dimethyltrytamine] was tested, and the “screen outcome in agonist mode” value (psychLight2 [2]) was “false negative”, the EC50 (psychLight1 [5]) was 627 nM and the Emax (psychLight1 [3]; HEK-293T) was 12.4%.
With NCCCC(=O)O [GABA, y-aminobutyric acid] the “response of psychLight to neurotransmitters” value (shortened to “response of psychLight”) (psychLight [6]; [9]) was “do not respond”.
With O=C(c1ccc(F)cc1)C1CCN(CCn2c(=O)[nH]c3ccccc3c2=O)CC1 [KETSN, ketanserin] the “PSYLI2 response (positive and negative controls)” value (psychLight2 [2]) was −12.7±0.5%, the “fluorescence intensity change, high content imager with psychLight2” value (psychLight2 [2]) was −3.5±1.6% and the “block of psychLight fluorescence to electrically evoked 5-HT transients” value (“block of psychLight fluorescence” below) [7] was “sufficient to block psychLight fluorescence”. For the same compound, the “peak response to field stimulation of BNST slices” value ([7]; KETSN 10 μM, N=5 slices) was 0±0.36%, the “block of 5-HT-induced activation of psychLight” value (psychLight1 [3]) was “able to block 5-HT-induced activation of psychLight” and the “effect on psychLight fluorescence” value (psychLight1 [3]) was “neutral antagonists; also recorded: minimal effect on psychLight1 fluorescence or slightly quenched the sensor”. For the same compound, the “fluorescence intensity change, confocal” value (psychLight1 [3]) was −1.7±0.3%.
In the case of CCN(CC)C(=O)N[C@H]1C=C2c3cccc4[nH]cc(c34)C[C@H]2N(C)C1 [LIS, lisuride], the “Schild regression (pA2) outcome” value (psychLight [8]) is reported as “potent psychLight competitive antagonists”.
With CCN(CC)C(=O)[C@@H]1C=C2c3cccc4[nH]cc(c34)C[C@H]2N(C)C1 [LSD, lysergic acid diethylamide] the “activation of dLight” value (dLight) was “both activated dLight to the same extent”.
With CNCCc1c[nH]c2ccc(O)cc12 [N-5-HT, N-methylserotonin] the “ΔF/F PSYLI2 fluorescence, panel” value (psychLight2 [2]) was 24.6%±1.7%.
For c1ccc(C2(N3CCCCC3)CCCCC2)cc1 [PCP, Phencyclidine], the “screen outcome in agonist mode” value (psychLight2 [2]) was “did not activate the sensor” and the ligand score (psychLight2 [1]) was roughly 0.
In the case of C[C@H](Cc1ccccc1)N(C)C [R-dimethamphetamine, (R)-dimethamphetamine], the “screen outcome in agonist mode” value (psychLight2 [2]; [10]) is reported as “potential hallucinogenic hits”.
With CN1CCc2cccc3c2[C@H]1Cc1ccc(O)c(O)c1-3 [apomorphine, R-(−)-apomorphine] the “Schild regression (pA2) outcome” value (psychLight [8]) was “potent psychLight competitive antagonists”.
For CN1[C@@H]2CC[C@H]1C[C@@H](OC(c1ccccc1)c1ccccc1)C2 [benztropine], the “Schild regression (pA2) outcome” value (psychLight [8]) was “potent psychLight competitive antagonists”.
With NCCc1ccc(O)c(O)c1 [dopamine] the “response of psychLight” value (psychLight [6]) was “do not respond”.
For N[C@@H](CCC(=O)O)C(=O)O [glutamate, L-glutamic acid], the “response of psychLight” value (psychLight [6]; [9]) was “do not respond”.
CN1C2CCCC1CC(NC(=O)c1nn(C)c3ccccc13)C2 (centres unmarked) [granisetron] was tested, and the “block of psychLight fluorescence” value [7] was “sufficient to block psychLight fluorescence”.
With NC[C@H](O)c1ccc(O)c(O)c1 [norepinephrine] the “response of psychLight” value (psychLight [6]; [9]) was “do not respond”.
In the case of COC(=O)[C@@H]1C[C@H](OC(C)=O)C(=O)[C@H]2[C@@]1(C)CC[C@H]1C(=O)O[C@H](c3ccoc3)C[C@]21C [salvinorin A], the “screen outcome in agonist mode” value (psychLight2 [2]; [10]) is reported as “did not activate the sensor” and the ligand score (psychLight2 [1]) is reported as roughly 0.
For NCCc1c[nH]c2ccccc12 [tryptamine], the “ΔF/F PSYLI2 fluorescence, panel” value (psychLight2 [2]) was “robust response”.
For tetrodotoxin citrate, the “block of psychLight fluorescence” value [7] was “sufficient to block psychLight fluorescence”.

— patent US20230384333A1 (priority 2020, published 2023)
